Consider two compounds from US9884086B2, “Administration method for anticancer drugs” (Dong-A University Research Foundation for Industry—Academy …, priority 2014, dated 2018).

Molecules are shown by their SMILES.

The conditions of data set [1]: i.p. injection; cited from earlier work.
The subject of data set [2] is WT MEFs cells. Kind of data set: removal of Platinum-GpG adducts after cisplatin in forskolin-synchronized cells (immunoslot blotting). The format is cell-based, mouse. As to conditions: cisplatin given 12 hours vs 24 hours after forskolin treatment. On the procedure:
For cell culture, 1 ml of 10% (vol/vol) fetal bovine serum (FBS, Hyclone Co.) was added to 10 ml of Dulbecco's modified Eagle's medium (DMEM), followed by adding 100 μl of 1% (vol/vol) penicillin-streptomycin thereto. Then, NIH3T3 cells, wild-type mouse embryo fibroblasts (WT MEFs), and mouse embryo fibroblasts free from cryptochrome 1 (Cry1) and cryptochrome 2(Cry2) (Cry^DKO MEFs), respectively, were cultured in the above prepared culture medium. For bio-cycle synchronization, fused cells were further cultured for additional three (3) days after adding […] forskolin to the above medium. After separating genomic DNA from MEFs cells using QIAamp DNA Mini kit (Qiagen), […] of genomic DNA was moved to a nitrocellulose membrane by a BioDot SF Microfiltration apparatus (BioRad). The genomic DNA was heated at 80° C. for 2 hours under vacuum to be bound to the nitrocellulose membrane. Using a mono-antibody specifically recognizing Platinum-GpG adducts (Oncolyze), an amount of DNA damaged by cisplatin was relatively measured. Then, it may be identified whether DNA bound to the nitrocellulose membrane is quantified on Gel-doc after staining the DNA with Sybr-gold as a DNA staining reagent.

In data set [3] the test system is ATR pathway. The data set is described as follows: ATR pathway markers in mouse liver after cisplatin injection at CT08 or CT20 (immunoblotting). In kind it is in vivo. On the procedure: Before sacrificing C57BL/6J male mouse, the animal was placed under an environment where the daytime and nighttime were maintained for 12 hours each […], during 2 weeks. After exposing the mouse to CO2 and putting the animal to death, the liver of the mouse was cut into pieces having a size of less than 2 mm and washed with phosphate buffer saline (PBS), followed by freezing the same in liquid nitrogen. The frozen liver piece was pulverized using a ceramic mortar and pestle under liquid nitrogen to prepare a whole cell fusion. An extract of cytoplasm and nucleus protoplasm as well as the whole cell fusion were prepared. A chromatin-rich part could be obtained by treating 10-U DNase I (Promega) and 100-U micrococcal nuclease at 30° C. for 30 minutes and from the nucleus protoplasm through extraction using fillets. Each part was analyzed by SDS-PAGE and both of Ponceau S staining and immunoblotting. According to typical immunoblotting orders, amounts of proteins were determined using the above parts. For quantification of the immunoblotting, ImageQuant 5.2 software (Molecular Dynamics) was used. Antibodies used in the experiments were as follows: GAPDH, p-Chk1 5345, p53, p-p53 S15 (Cell Signaling Technology), ATR, RPA70 (Replication Protein A), Chk1, Actin (Santa Cruz Biotechnology), Clock, Cry1, Cry2, p-MCM2 5108, Tim (Timeless), Tipin (Bethyl Laboratory), histone H3 (Millipore), Per2 (BD Biosciences) and platinum GpG (Oncolyze). Tim and Cry1, Tim protein complexes were precipitated using protein A/G-coupled sepharose (Sigma) collected beforehand as well as an anti-Tim antibody. In order to detect Cry1 precipitated together with Tim, immunoblotting was implemented. In the present disclosure, CT refers to a time having passed from a time period when the bio-cyclic rhythm was induced. For instance, CT08 means 8 hours after the induction of the bio-cyclic rhythm, and CT20 means 20 hours after the induction of the bio-cyclic rhythm. […]
(In general: In western blotting, separated proteins are transferred to a membrane and probed.)

In data set [4] the test system is cryptochrome 1 (Cry1). Kind of data set: Cry1 expression over time after forskolin bio-cycle synchronization in WT MEFs (immunoblotting). In kind it is cell-based, mouse. Here is the method:
(§1) For cell culture, 1 ml of 10% (vol/vol) fetal bovine serum (FBS, Hyclone Co.) was added to 10 ml of Dulbecco's modified Eagle's medium (DMEM), followed by adding 100 μl of 1% (vol/vol) penicillin-streptomycin thereto. Then, NIH3T3 cells, wild-type mouse embryo fibroblasts (WT MEFs), and mouse embryo fibroblasts free from cryptochrome 1 (Cry1) and cryptochrome 2(Cry2) (Cry^DKO MEFs), respectively, were cultured in the above prepared culture medium. For bio-cycle synchronization, fused cells were further cultured for additional three (3) days after adding […] forskolin to the above medium. An extract of cytoplasm and nucleus protoplasm as well as the whole cell fusion were prepared. A chromatin-rich part could be obtained by treating 10-U DNase I (Promega) and 100-U micrococcal nuclease at 30° C. for 30 minutes and from the nucleus protoplasm through extraction using fillets. Each part was analyzed by SDS-PAGE and both of Ponceau S staining and immunoblotting. According to typical immunoblotting orders, amounts of proteins were determined using the above parts. For quantification of the immunoblotting, ImageQuant 5.2 software (Molecular Dynamics) was used. […]

Data set [5] has as its system ATR. Kind of data set: phosphorylation of p53 and Chk1 (proxy marker of ATR) after UV radiation in forskolin-synchronized cells. The format is cell-based, mouse. Conditions: NIH3T3 cells. Here is the method:
as §1, with “above medium. For UV radiation, using a germicidal lamp (GE) mainly emitting UV-C beam, UV light was emitted to the fused cells by 5 J/m^2. Then, a fluorescence rate of the incident beam was measured using a UV-C sensor. An extract” for “above medium. An extract”

`N.N.[Cl][Pt][Cl]` [cisplatin]: the “time until cisplatin reaches the liver” value in data set [1] is listed as “about 2 hours”. For the same compound, the “removal rate of Platinum-GpG” value in data set [2] is “higher at 12 hours after forskolin treatment”. Besides, the “accumulation of replicated protein A (RPA70) in chromatin” value in data set [3] (liver chromatin, after cisplatin injection at CT20) is “accumulation of replicated protein A was identified in chromatin”. Further, the “p-MCM2 signal, mouse at CT20 as compared to the mouse at CT08” value in data set [3] (mouse liver, at 8 hours or later after the cisplatin injection) is given as at least 2 times. Besides, in data set [3] (mouse liver, cisplatin injected at CT08 and CT20), the “extents of expression of p-Chk1 and p-p53” value is given as “insignificant”.

Take `C=C[C@@]1(C)CC(=O)[C@]2(O)[C@@]3(C)[C@@H](O)CCC(C)(C)[C@@H]3[C@H](O)[C@H](OC(C)=O)[C@@]2(C)O1` [forskolin]: in data set [4], the “time of maximum expression of cryptochrome 1 (Cry1) after forskolin treatment” value was 12 h and the “time of minimum expression of cryptochrome 1 (Cry1) after forskolin treatment” value came out at 24 h. In addition, the “extent of phosphorylation of p53 and Chk1, cell 12 hours after forskolin treatment as compared to cell 24 hours after” value in data set [5] is recorded as 2 to 3 times.
